Reference: patent US10844077B2, “Thiazolyl-containing compounds for treating proliferative diseases” (Dana-Farber Cancer Institute, Inc., priority 2014, dated 2020)
Several values for one entry are separate records, joined by “and”; a condition that tells them apart may be missing. Equal values may be shown once.

Legend:
Assay in all cases: KINATIV assay of compounds I-3 and I-9, lysate directly labeled with ATP-biotin probe (no GF)
Type in all cases: cell-based
kinases in BCWM.1 cells [1] = target: kinases in BCWM.1 cells (Homo sapiens, UniProt P50613); details: CDK7; Lys2; 1 μM; no GF
Experimental: (§1) The cells were harvested and lysed. […] Bound kinases were identified and quantitated by ACTIVX as described in Patricelli et al., Biochemistry, 2007, 46(2): 350-358. The compounds were tested in duplicates against duplicate or quadruplicate control samples.

kinases in BCWM.1 cells [2] = target: kinases in BCWM.1 cells (Homo sapiens, UniProt P11802); details: CDK4; Lys2; 1 μM; no GF
Experimental: as §1

kinases in BCWM.1 cells [3] = target: kinases in BCWM.1 cells (Homo sapiens, UniProt Q9Y616); details: IRAK3; Lys1; 1 μM; no GF
Experimental: as §1

kinases in BCWM.1 cells [4] = target: kinases in BCWM.1 cells (Homo sapiens, UniProt P27361); details: Erk1; Lys2; 1 μM; no GF
Experimental: as §1

kinases in BCWM.1 cells [5] = target: kinases in BCWM.1 cells (Homo sapiens, UniProt Q12851); details: GCK; Lys2; 1 μM; no GF
Experimental: as §1

kinases in BCWM.1 cells [6] = target: kinases in BCWM.1 cells (Homo sapiens, UniProt Q99755); details: PIP5K1A; ATP; 1 μM, 90 min; no GF
Experimental: as §1

kinases in BCWM.1 cells [7] = target: kinases in BCWM.1 cells (Homo sapiens, UniProt Q00534); details: CDK6; Lys2; 1 μM; no GF
Experimental: as §1

kinases in BCWM.1 cells [8] = target: kinases in BCWM.1 cells (Homo sapiens, UniProt Q13315); details: ATM; ATP; 1 μM; no GF
Experimental: as §1

kinases in BCWM.1 cells [9] = target: kinases in BCWM.1 cells (Homo sapiens, UniProt P41240); details: CSK; Activation Loop; 1 μM; no GF
Experimental: as §1

kinases in BCWM.1 cells [10] = target: kinases in BCWM.1 cells (Homo sapiens, UniProt P45985); details: MAP2K4; Lys2; 1 μM; no GF
Experimental: as §1

kinases in BCWM.1 cells [11] = target: kinases in BCWM.1 cells (Homo sapiens, UniProt Q15831); details: LKB1; Lys2; 1 μM; no GF
Experimental: as §1

kinases in BCWM.1 cells [12] = target: kinases in BCWM.1 cells (Homo sapiens, UniProt P28482); details: Erk2; Lys2; 1 μM; no GF
Experimental: as §1

kinases in BCWM.1 cells [13] = target: kinases in BCWM.1 cells (Homo sapiens, UniProt Q06187); details: BTK; Activation Loop; 1 μM; no GF
Experimental: as §1

kinases in BCWM.1 cells [14] = target: kinases in BCWM.1 cells (Homo sapiens, UniProt Q13572); details: ITPK1; ATP; 1 μM; no GF
Experimental: as §1

kinases in BCWM.1 cells [15] = target: kinases in BCWM.1 cells (Homo sapiens, UniProt P78368); details: CK1g2; Lys2; 1 μM; no GF
Experimental: as §1

kinases in BCWM.1 cells [16] = target: kinases in BCWM.1 cells (Homo sapiens, UniProt Q13418); details: ILK; Protein Kinase Domain; 1 μM; no GF
Experimental: as §1

kinases in BCWM.1 cells [17] = target: kinases in BCWM.1 cells (Homo sapiens, UniProt Q16659); details: Erk3; Lys2; 1 μM; no GF
Experimental: as §1

kinases in BCWM.1 cells [18] = target: kinases in BCWM.1 cells (Homo sapiens, UniProt O00418); details: eEF2K; ATP; 1 μM; no GF
Experimental: as §1

kinases in BCWM.1 cells [19] = target: kinases in BCWM.1 cells (Homo sapiens, UniProt Q96RR4); details: CaMKK2; Lys2; 1 μM; no GF
Experimental: as §1

kinases in BCWM.1 cells [20] = target: kinases in BCWM.1 cells (Homo sapiens, UniProt Q9UK32); details: RSK4 domain1; Lys2; 1 μM, 90 min; no GF
Experimental: as §1

kinases in BCWM.1 cells [21] = target: kinases in BCWM.1 cells (Homo sapiens, UniProt O00506); details: YSK1; Lys1; 1 μM, 90 min; no GF
Experimental: as §1

kinases in BCWM.1 cells [22] = target: kinases in BCWM.1 cells (Homo sapiens, UniProt Q9Y2K2); details: QSK; Lys2; 1 μM, 90 min; no GF
Experimental: as §1

kinases in BCWM.1 cells [23] = target: kinases in BCWM.1 cells (Homo sapiens, UniProt O94806); details: PKD3; Lys1; 1 μM, 90 min; no GF
Experimental: as §1

kinases in BCWM.1 cells [24] = target: kinases in BCWM.1 cells (Homo sapiens, UniProt Q16513); details: PKN2; Lys2; 1 μM, 90 min; no GF
Experimental: as §1

kinases in BCWM.1 cells [25] = target: kinases in BCWM.1 cells (Homo sapiens, UniProt P17612); details: PKACa; Lys2; 1 μM, 90 min; no GF
Experimental: as §1

kinases in BCWM.1 cells [26] = target: kinases in BCWM.1 cells (Homo sapiens, UniProt Q02156); details: PKCe; Lys2; 1 μM, 90 min; no GF
Experimental: as §1

kinases in BCWM.1 cells [27] = target: kinases in BCWM.1 cells (Homo sapiens, UniProt P41743); details: PKCi; Lys1; 1 μM, 90 min; no GF
Experimental: as §1

kinases in BCWM.1 cells [28] = target: kinases in BCWM.1 cells (Homo sapiens, UniProt P51956); details: NEK3; Activation Loop; 1 μM, 90 min; no GF
Experimental: as §1

Chain of kinases in BCWM.1 cells (Homo sapiens, UniProt Q06187) (Q06187 2-659 limits assumed): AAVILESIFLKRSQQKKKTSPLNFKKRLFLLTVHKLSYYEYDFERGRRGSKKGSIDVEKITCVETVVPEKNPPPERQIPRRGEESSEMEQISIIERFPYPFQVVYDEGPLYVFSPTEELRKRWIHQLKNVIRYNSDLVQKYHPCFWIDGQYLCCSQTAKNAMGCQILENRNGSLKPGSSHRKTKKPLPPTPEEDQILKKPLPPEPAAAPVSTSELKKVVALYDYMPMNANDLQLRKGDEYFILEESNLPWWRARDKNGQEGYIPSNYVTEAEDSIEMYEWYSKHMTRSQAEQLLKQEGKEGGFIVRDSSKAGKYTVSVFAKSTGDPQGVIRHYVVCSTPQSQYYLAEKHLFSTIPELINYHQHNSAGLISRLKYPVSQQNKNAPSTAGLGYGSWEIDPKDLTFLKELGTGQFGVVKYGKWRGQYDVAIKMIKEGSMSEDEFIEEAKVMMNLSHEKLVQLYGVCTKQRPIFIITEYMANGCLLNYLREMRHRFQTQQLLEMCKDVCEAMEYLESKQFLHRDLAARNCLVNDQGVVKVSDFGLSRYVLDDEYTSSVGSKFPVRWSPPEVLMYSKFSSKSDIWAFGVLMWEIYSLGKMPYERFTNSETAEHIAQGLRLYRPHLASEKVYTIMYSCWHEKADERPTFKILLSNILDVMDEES
Chain of kinases in BCWM.1 cells (Homo sapiens, UniProt Q13315) (Q13315 2-3056 limits assumed): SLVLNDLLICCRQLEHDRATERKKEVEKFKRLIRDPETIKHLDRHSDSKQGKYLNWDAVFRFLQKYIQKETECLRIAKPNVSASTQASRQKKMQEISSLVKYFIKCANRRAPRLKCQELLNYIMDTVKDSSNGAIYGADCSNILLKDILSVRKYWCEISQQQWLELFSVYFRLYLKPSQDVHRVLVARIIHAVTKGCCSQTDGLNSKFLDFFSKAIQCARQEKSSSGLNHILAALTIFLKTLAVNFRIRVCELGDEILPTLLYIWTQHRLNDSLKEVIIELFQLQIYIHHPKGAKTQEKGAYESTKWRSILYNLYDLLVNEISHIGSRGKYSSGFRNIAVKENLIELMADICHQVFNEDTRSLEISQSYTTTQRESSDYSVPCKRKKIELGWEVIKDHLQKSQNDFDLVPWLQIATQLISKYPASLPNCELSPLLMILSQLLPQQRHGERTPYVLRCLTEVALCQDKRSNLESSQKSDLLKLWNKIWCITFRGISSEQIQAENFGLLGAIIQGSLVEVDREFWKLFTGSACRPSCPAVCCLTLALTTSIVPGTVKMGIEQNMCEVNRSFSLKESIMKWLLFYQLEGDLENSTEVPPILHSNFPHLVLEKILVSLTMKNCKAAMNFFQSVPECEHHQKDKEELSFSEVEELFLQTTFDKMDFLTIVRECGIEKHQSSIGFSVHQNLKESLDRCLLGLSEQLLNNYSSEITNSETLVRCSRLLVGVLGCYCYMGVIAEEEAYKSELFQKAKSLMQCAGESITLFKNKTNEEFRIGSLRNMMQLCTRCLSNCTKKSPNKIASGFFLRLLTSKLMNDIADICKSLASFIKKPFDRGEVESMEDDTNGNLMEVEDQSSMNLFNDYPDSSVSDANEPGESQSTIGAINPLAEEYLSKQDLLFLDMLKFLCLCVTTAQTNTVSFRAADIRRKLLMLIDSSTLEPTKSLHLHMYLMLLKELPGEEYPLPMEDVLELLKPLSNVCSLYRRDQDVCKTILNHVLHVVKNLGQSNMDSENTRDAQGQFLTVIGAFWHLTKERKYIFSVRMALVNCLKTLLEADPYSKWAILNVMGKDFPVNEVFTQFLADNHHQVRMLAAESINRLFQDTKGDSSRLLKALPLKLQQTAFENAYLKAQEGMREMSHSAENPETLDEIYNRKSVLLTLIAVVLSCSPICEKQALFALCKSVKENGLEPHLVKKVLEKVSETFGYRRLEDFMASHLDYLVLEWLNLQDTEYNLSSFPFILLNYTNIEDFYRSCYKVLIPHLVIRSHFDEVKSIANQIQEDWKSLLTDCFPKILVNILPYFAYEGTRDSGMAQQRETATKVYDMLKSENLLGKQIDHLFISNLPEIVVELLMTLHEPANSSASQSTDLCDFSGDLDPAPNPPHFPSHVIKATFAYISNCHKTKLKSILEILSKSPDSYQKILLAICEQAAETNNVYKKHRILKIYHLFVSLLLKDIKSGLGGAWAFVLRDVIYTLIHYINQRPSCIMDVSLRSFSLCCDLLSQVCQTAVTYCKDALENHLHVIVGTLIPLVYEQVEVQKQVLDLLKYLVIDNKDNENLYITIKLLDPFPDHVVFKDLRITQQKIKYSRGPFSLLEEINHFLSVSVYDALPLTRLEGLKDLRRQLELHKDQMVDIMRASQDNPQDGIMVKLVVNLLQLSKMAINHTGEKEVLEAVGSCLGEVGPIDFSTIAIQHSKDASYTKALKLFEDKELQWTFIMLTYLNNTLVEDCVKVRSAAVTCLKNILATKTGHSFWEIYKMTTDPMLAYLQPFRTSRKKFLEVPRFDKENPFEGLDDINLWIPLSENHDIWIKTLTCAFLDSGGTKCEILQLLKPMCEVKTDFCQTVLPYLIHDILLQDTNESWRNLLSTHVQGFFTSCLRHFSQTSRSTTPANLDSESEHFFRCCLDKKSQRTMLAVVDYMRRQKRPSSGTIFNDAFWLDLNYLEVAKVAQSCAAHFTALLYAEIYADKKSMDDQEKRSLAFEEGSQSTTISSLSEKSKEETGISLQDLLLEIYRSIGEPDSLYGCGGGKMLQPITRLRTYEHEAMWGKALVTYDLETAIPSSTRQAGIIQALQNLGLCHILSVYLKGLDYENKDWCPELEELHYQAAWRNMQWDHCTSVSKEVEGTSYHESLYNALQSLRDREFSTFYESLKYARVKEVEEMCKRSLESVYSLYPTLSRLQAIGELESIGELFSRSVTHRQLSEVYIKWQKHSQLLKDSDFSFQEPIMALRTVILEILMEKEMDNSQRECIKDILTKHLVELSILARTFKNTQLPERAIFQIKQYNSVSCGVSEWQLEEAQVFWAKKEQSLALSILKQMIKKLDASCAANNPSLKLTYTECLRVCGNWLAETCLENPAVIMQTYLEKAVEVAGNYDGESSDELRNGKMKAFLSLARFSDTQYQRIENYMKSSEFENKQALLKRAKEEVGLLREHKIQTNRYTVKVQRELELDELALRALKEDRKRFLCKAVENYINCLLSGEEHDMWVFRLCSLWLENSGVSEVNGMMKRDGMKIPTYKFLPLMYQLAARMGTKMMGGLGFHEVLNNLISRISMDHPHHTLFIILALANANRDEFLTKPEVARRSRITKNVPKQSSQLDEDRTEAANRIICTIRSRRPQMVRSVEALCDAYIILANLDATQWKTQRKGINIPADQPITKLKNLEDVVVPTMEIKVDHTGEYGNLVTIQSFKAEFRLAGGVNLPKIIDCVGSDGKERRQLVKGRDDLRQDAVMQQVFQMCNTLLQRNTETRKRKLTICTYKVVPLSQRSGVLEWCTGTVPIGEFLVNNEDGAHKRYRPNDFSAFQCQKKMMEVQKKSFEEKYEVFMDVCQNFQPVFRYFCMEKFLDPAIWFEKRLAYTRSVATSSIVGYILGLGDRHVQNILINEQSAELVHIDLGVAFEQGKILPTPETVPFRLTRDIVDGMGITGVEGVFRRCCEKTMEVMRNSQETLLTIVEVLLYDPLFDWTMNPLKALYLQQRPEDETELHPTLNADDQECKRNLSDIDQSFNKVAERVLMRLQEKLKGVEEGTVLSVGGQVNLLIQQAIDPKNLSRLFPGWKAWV
Chain of kinases in BCWM.1 cells (Homo sapiens, UniProt P27361) (P27361 2-379 limits assumed): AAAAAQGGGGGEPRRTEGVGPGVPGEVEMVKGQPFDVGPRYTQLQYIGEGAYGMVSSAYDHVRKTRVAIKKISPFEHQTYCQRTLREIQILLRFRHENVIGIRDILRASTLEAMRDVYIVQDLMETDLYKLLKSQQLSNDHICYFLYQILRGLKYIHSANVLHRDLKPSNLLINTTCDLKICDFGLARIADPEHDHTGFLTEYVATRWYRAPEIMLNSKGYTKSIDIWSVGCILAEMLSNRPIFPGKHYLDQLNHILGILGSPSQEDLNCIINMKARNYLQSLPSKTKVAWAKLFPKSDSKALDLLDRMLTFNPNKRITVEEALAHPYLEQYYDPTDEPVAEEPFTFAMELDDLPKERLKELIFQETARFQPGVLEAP
Chain of kinases in BCWM.1 cells (Homo sapiens, UniProt P11802) (P11802 2-303 limits assumed): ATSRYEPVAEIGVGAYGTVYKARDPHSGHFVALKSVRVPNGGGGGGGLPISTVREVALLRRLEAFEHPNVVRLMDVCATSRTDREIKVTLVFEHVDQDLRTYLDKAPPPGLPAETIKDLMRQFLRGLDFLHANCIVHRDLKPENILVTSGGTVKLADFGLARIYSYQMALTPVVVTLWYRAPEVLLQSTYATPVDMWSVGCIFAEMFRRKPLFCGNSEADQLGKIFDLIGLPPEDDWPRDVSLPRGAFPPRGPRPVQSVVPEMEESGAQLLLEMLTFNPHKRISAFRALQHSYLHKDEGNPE
Chain of kinases in BCWM.1 cells (Homo sapiens, UniProt P50613) (P50613 2-346 limits assumed): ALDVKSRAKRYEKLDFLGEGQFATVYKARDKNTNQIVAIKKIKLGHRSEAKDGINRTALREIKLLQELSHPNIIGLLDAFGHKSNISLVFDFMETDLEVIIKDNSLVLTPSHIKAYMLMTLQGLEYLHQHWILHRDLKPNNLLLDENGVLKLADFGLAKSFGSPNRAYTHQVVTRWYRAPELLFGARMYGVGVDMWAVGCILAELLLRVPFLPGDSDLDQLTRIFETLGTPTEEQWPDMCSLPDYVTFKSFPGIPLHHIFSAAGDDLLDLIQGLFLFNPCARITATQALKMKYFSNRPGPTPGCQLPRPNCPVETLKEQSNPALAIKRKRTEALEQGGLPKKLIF
Chain of kinases in BCWM.1 cells (Homo sapiens, UniProt P28482) (P28482 2-360 limits assumed): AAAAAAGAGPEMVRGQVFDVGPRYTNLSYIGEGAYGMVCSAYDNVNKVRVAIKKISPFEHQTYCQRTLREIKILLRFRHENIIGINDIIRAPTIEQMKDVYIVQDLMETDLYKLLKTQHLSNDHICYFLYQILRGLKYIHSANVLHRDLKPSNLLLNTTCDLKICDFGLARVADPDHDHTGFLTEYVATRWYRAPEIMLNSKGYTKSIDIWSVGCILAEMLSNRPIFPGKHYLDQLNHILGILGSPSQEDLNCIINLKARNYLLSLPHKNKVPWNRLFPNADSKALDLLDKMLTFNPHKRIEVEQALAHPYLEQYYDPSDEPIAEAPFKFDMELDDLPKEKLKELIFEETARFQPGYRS

C=CC(=O)N1CC[C@H](Nc2nccc(Nc3ncc(C(=O)Nc4c(C)cccc4C)s3)n2)C1 [Example I-3]
% change of MS signal compared to control sample (kinases in BCWM.1 cells [1]): 8.9% and 5.1% | % change of MS signal compared to control sample (kinases in BCWM.1 cells [2]): 10.3% and 4.8% | % change of MS signal compared to control sample (kinases in BCWM.1 cells [3]): −11.3% and −5.5% | % change of MS signal compared to control sample (kinases in BCWM.1 cells [4]): −0.6% and 1.5% | % change of MS signal compared to control sample (kinases in BCWM.1 cells [5]): 18.1% and 17.8% | % change of MS signal compared to control sample (kinases in BCWM.1 cells [6]): 26.2% | % change of MS signal compared to control sample (kinases in BCWM.1 cells [7]): 12.4% and 3.6% | % change of MS signal compared to control sample (kinases in BCWM.1 cells [8]): 20.7% and 19.5% | % change of MS signal compared to control sample (kinases in BCWM.1 cells [9]): 36% and 60.3% | % change of MS signal compared to control sample (kinases in BCWM.1 cells [10]): −3.9% and 1.1% | % change of MS signal compared to control sample (kinases in BCWM.1 cells [11]): −11.2% and −8.7% | % change of MS signal compared to control sample (kinases in BCWM.1 cells [12]): −1.8% and 1.1% | % change of MS signal compared to control sample (kinases in BCWM.1 cells [13]): 94.7% and 95.2% | % change of MS signal compared to control sample (kinases in BCWM.1 cells [14]): 8.5% and 1.5% | % change of MS signal compared to control sample (kinases in BCWM.1 cells [15]): −3.7% and −4.5% | % change of MS signal compared to control sample (kinases in BCWM.1 cells [16]): 3.6% and 9.7% | % change of MS signal compared to control sample (kinases in BCWM.1 cells [17]): 23.2% and 23.8% | % change of MS signal compared to control sample (kinases in BCWM.1 cells [18]): −18.9% and −27.8% | % change of MS signal compared to control sample (kinases in BCWM.1 cells [19]): −2.1% and 1.7%

CCC(=O)N1CC[C@H](Nc2nccc(Nc3ncc(C(=O)Nc4c(C)cccc4C)s3)n2)C1 [Example I-9]
% change of MS signal compared to control sample (kinases in BCWM.1 cells [20]): 9.1% | % change of MS signal compared to control sample (kinases in BCWM.1 cells [21]): −11.5% | % change of MS signal compared to control sample (kinases in BCWM.1 cells [22]): −1.8% | % change of MS signal compared to control sample (kinases in BCWM.1 cells [23]): −15.2% | % change of MS signal compared to control sample (kinases in BCWM.1 cells [24]): −4.5% | % change of MS signal compared to control sample (kinases in BCWM.1 cells [25]): −9.8% | % change of MS signal compared to control sample (kinases in BCWM.1 cells [26]): −38.2% | % change of MS signal compared to control sample (kinases in BCWM.1 cells [27]): 16.5% | % change of MS signal compared to control sample (kinases in BCWM.1 cells [28]): −21.2%
